Assays:
Assay in all cases: relative viability (nuclei count vs DMSO), 5 days (fraction); higher = more cells survive
Trametinib + Pemetrexed = compound: CC(=O)Nc1cccc(-n2c(=O)n(C3CC3)c(=O)c3c(Nc4ccc(I)cc4F)n(C)c(=O)c(C)c32)c1 [Trametinib] + Nc1nc2[nH]cc(CCc3ccc(C(=O)N[C@@H](CCC(=O)O)C(=O)O)cc3)c2c(=O)[nH]1 [Pemetrexed] (partner 0.2 µM)
How it was run: (§1)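 A single step with final 0.05% Triton X-100, 1% formaldehyde and 1 ug/ml Hoechst fixed the cells and stained nuclei 5 days after treatment. Lung cancer cell lines in 1536-well plates had been treated by pin tool the day after seeding with one drug alone or a fixed anchor-drug dose plus five library-drug doses (not always all listed) in √10 steps, and nuclei were counted on 4× images. Relative viability is the ratio of nuclei in treated wells to nuclei in vehicle wells, taken as the median of duplicate plates.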

Trametinib + Pictilisib = compound: CC(=O)Nc1cccc(-n2c(=O)n(C3CC3)c(=O)c3c(Nc4ccc(I)cc4F)n(C)c(=O)c(C)c32)c1 [Trametinib] + CS(=O)(=O)N1CCN(Cc2cc3nc(-c4cccc5[nH]ncc45)nc(N4CCOCC4)c3s2)CC1 [Pictilisib] (partner 1 µM)
How it was run: as §1

[1] = compound: CN1C=C(C2=CC=CC=C21)/C=C\3/C4=C(C=CC=N4)NC3=O + CCNC(=O)c1noc(-c2cc(C(C)C)c(O)cc2O)c1-c1ccc(CN2CCOCC2)cc1 [Luminespib] (partner 0.01 µM)
How it was run: as §1

Trametinib + Vorinostat = compound: CC(=O)Nc1cccc(-n2c(=O)n(C3CC3)c(=O)c3c(Nc4ccc(I)cc4F)n(C)c(=O)c(C)c32)c1 [Trametinib] + O=C(CCCCCCC(=O)Nc1ccccc1)NO [Vorinostat] (partner 1 µM)
How it was run: as §1

Cell Line | relative viability (Trametinib + Pemetrexed; first compound 0.0025 µM) | relative viability (Trametinib + Pemetrexed; first compound 0.007906 µM) | relative viability (Trametinib + Pemetrexed; first compound 0.025 µM) | relative viability (Trametinib + Pemetrexed; first compound 0.07906 µM) | relative viability (Trametinib + Pemetrexed; first compound 0.25 µM) | relative viability (Trametinib + Pictilisib; first compound 0.0025 µM) | relative viability (Trametinib + Pictilisib; first compound 0.007906 µM) | relative viability (Trametinib + Pictilisib; first compound 0.025 µM) | relative viability (Trametinib + Pictilisib; first compound 0.07906 µM) | relative viability (Trametinib + Pictilisib; first compound 0.25 µM) | relative viability ([1]; first compound 0.02 µM) | relative viability ([1]; first compound 0.06325 µM) | relative viability ([1]; first compound 0.2 µM) | relative viability ([1]; first compound 0.6325 µM) | relative viability ([1]; first compound 2 µM) | relative viability (Trametinib + Vorinostat; first compound 0.0025 µM) | relative viability (Trametinib + Vorinostat; first compound 0.007906 µM) | relative viability (Trametinib + Vorinostat; first compound 0.025 µM) | relative viability (Trametinib + Vorinostat; first compound 0.07906 µM) | relative viability (Trametinib + Vorinostat; first compound 0.25 µM)
NCI-H1975 | 0.326 | 0.284 | 0.246 | 0.249 | 0.226 | 0.252 | 0.199 | 0.137 | 0.162 | 0.179 | 0.0911 | 0.261 | 0.187 | 0.338 | 0.206 | 0.643 | 0.542 | 0.48 | 0.456 | 0.351
NCI-H2126 | 0.647 | 0.553 | 0.464 | 0.538 | 0.428 | 0.456 | 0.413 | 0.362 | 0.372 | 0.383 | 1 | 0.875 | 0.852 | 0.907 | 0.932 | 0.701 | 0.514 | 0.353 | 0.6 | 0.446
201T | 0.394 | 0.362 | 0.338 | 0.341 | 0.371 | 0.653 | 0.625 | 0.542 | 0.71 | 0.615 | 1.01 | 1.06 | 1.12 | 1.03 | 1.15 | 0.945 | 0.833 | 0.736 | 0.732 | 0.785
NCI-H358 | 0.156 | 0.143 | 0.164 | 0.16 | 0.152 | 0.311 | 0.328 | 0.233 | 0.22 | 0.363 | 0.397 | 0.377 | 0.403 | 0.309 | 0.407 | 0.367 | 0.27 | 0.266 | 0.205 | 0.154
SK-LU-1 | 0.951 | 0.866 | 0.822 | 0.582 | 0.353 | 0.535 | 0.399 | 0.251 | 0.278 | 0.256 | 0.201 | 0.185 | 0.191 | 0.184 | 0.2 | 0.753 | 0.748 | 0.657 | 0.52 | 0.381
H3255 | 0.538 | 0.506 | 0.514 | 0.473 | 0.463 | 0.436 | 0.344 | 0.334 | 0.237 | 0.206 | 1.03 | 1 | 0.786 | 0.86 | 0.77 | 0.903 | 0.799 | 0.509 | 0.709 | 0.905
LOU-NH91 | 0.403 | 0.414 | 0.418 | 0.374 | 0.382 | 0.469 | 0.497 | 0.479 | 0.45 | 0.353 | 0.335 | 0.302 | 0.352 | 0.307 | 0.266 | 0.893 | 0.802 | 0.766 | 0.809 | 0.411
NCI-H1666 | 0.881 | 0.742 | 0.753 | 0.695 | 0.693 | 0.267 | 0.371 | 0.276 | 0.255 | 0.244 | 1 | 1.04 | 1.05 | 0.99 | 1.04 | 0.989 | 0.946 | 0.871 | 0.861 | 0.713
SK-MES-1 | 0.916 | 0.736 | 0.664 | 0.428 | 0.407 | 0.282 | 0.223 | 0.214 | 0.171 | 0.187 | 0.777 | 0.557 | 0.62 | 0.684 | 0.699 | 0.994 | 0.894 | 0.744 | 0.511 | 0.337
NCI-H2023 | 0.205 | 0.187 | 0.184 | 0.189 | 0.14 | 0.213 | 0.141 | 0.137 | 0.175 | 0.143 | 0.899 | 0.602 | 0.763 | 0.914 | 0.527 | 0.683 | 0.477 | 0.472 | 0.541 | 0.136
COR-L 105 | 0.984 | 0.825 | 0.69 | 0.488 | 0.42 | 0.311 | 0.343 | 0.303 | 0.31 | 0.315 | 0.634 | 0.616 | 0.625 | 0.804 | 0.85 | 0.715 | 0.747 | 0.52 | 0.484 | 0.379
NCI-H838 | 0.245 | 0.212 | 0.229 | 0.217 | 0.213 | 0.351 | 0.415 | – | 0.319 | 0.281 | 0.314 | 0.336 | 0.345 | 0.269 | 0.325 | 0.682 | 0.591 | 0.598 | 0.631 | 0.568
SW 1573 | 0.732 | 0.76 | 0.538 | 0.555 | 0.331 | 0.357 | 0.34 | 0.339 | 0.308 | 0.214 | 0.235 | 0.279 | 0.327 | 0.181 | 0.243 | 0.755 | 0.663 | 0.437 | 0.491 | 0.278

Source: the supplement of paper PMC10307832
